Source: PMC5259792, “A new serotonin 5-HT6 receptor antagonist with procognitive activity – Importance of a halogen bond interaction to stabilize the binding” (Scientific Reports, 2017)
Entries after “also recorded” stand apart in the source; their conditions may differ.

Tests used:
human 5-HT6R = human 5-HT6R (Homo sapiens, UniProt P50406); test: 5-HT6R radioligand competitive binding assay ([3H]LSD)
5-HT6R C110A = molecular target: T1, 5-HT6R C110A (Homo sapiens, UniProt P50406, C110A); test: 5-HT6R AC assay (cAMP), C110A mutant; format: cell-based
T1 construct: host or cells: HEK-293
T1 sequence (P50406 whole entry C110A): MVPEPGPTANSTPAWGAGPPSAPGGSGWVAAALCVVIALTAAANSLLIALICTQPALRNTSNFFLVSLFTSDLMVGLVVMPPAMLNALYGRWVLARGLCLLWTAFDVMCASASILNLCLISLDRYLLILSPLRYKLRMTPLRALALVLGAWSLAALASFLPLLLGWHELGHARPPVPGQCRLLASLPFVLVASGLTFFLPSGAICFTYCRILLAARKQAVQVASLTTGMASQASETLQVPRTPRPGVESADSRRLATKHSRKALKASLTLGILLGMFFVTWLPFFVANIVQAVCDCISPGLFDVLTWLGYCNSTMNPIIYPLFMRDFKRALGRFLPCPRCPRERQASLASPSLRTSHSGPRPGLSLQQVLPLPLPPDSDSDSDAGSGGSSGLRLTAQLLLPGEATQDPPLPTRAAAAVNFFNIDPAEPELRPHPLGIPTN

5-HT6R F285A = molecular target: T2, 5-HT6R F285A (Homo sapiens, UniProt P50406, F285A); test: 5-HT6R AC assay (cAMP), F285A mutant; format: cell-based
T2 construct: host or cells: HEK-293
T2 sequence (P50406 whole entry F285A): as the sequence (P50406 whole entry C110A) above, with A110C, F285A counted along it

human 5-HT6R WT = molecular target: T3, human 5-HT6R WT (Homo sapiens, UniProt P50406); test: 5-HT6R AC assay (cAMP), wild type receptor; format: cell-based; details: for disappearance of the 5-HT induced response / functional character at the human 5-HT6R in the AC assay / increase in cAMP levels by ligand alone (agonist effect): HEK-293 cells expressing human 5-HT6R; for IC50: read-out: pIC50, inhibition of 5-HT-induced stimulation of cAMP (converted)
T3 construct: host or cells: HEK-293
T3 sequence (P50406 whole entry): as the sequence (P50406 whole entry C110A) above, with A110C counted along it

5-HT6R N288A = molecular target: T4, 5-HT6R N288A (Homo sapiens, UniProt P50406, N288A); test: 5-HT6R AC assay (cAMP), N288A mutant; format: cell-based
T4 construct: host or cells: HEK-293
T4 sequence (P50406 whole entry N288A): as the sequence (P50406 whole entry C110A) above, with A110C, N288A counted along it

5-HT6R S193A = molecular target: T5, 5-HT6R S193A (Homo sapiens, UniProt P50406, S193A); test: 5-HT6R AC assay (cAMP), S193A mutant; format: cell-based
T5 construct: host or cells: HEK-293
T5 sequence (P50406 whole entry S193A): as the sequence (P50406 whole entry C110A) above, with A110C, S193A counted along it

[1] = molecular target: human serum albumin (HSA) (Homo sapiens, UniProt P02768); test: HSA binding; format: in vitro ADME; details: 5 μM
human serum albumin (HSA), sequence (P02768 25-609): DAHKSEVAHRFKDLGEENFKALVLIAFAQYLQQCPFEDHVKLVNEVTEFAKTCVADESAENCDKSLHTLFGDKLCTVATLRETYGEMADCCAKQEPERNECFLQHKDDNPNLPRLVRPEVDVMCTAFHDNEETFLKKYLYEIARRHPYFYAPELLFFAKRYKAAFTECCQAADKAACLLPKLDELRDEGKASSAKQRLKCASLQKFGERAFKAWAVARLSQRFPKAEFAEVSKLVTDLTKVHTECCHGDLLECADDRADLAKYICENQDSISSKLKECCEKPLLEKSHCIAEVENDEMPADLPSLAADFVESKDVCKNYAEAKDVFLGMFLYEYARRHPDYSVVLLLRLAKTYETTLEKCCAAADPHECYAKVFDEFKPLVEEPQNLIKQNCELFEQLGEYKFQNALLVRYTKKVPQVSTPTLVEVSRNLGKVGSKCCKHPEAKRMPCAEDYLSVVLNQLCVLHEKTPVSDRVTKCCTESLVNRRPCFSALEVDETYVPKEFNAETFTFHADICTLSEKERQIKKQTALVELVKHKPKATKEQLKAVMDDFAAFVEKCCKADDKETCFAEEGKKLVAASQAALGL

CYP2D6 = CYP2D6 (Homo sapiens, UniProt P10635); test: Fluorescence-based CYP2D6 inhibition assay; format: in vitro ADME; details: human recombinant microsomal CYP2D6 enzyme, 30 min incubation, AMMC substrate, read-out: remaining activity of CYP2D6
CYP2D6, sequence (P10635 whole entry): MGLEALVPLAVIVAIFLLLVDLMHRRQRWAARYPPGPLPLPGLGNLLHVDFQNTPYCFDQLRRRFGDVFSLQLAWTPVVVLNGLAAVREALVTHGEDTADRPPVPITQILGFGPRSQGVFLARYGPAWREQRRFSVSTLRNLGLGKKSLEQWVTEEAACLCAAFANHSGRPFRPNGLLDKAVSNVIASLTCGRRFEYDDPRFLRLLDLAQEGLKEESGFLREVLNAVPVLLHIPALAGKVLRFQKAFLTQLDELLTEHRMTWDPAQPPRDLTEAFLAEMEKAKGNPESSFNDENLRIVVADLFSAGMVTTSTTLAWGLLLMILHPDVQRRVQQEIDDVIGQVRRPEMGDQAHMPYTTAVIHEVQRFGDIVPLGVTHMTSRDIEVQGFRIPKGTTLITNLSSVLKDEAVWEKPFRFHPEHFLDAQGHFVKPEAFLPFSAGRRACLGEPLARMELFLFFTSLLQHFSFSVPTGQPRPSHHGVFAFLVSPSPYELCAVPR
Procedure: (§1) The high-affinity antagonist 7 was selected for the assessment of in vitro pharmacokinetic properties. Metabolic stability using rat and human liver microsomes (RLMs and HLMs, respectively) was determined as a measure of first-pass metabolism. Test compound was incubated at a concentration of 1 and 5 μM with RLM and HLM preparations, respectively. The half-life time (t1/2) was used to calculate the intrinsic clearance (CLint). […] An in vitro fluorescence-based inhibition assay was conducted with cytochrome P450 2D6 (CYP2D6), one of the most important enzymes involved in drug metabolism, using human recombinant microsomal CYP2D6 enzyme, AMMC {3-[2-(N,N-diethyl-N-methylamino)ethyl]-7-methoxy-4-methylcoumarin} as substrate, and quinidine as control inhibitor. After 30 min of incubation with compound 7 at a concentration of 10 μM, a remaining activity of 78% of the cytochrome was found.
(§2) RLM and HLM stability, HSA binding, and fluorescence-based CYP2D6 inhibition assays were performed according to previously reported procedures. Inhibition of hERG K^+ channel current was determined in an automated patch clamp assay using whole CHO-K1 cells at Eurofins Panlab (USA), according to previously published method.

[2] = molecular target: T6, serotonin 5-HT2A receptor (Homo sapiens, UniProt P28223); test: Selectivity panel radioligand binding, 5-HT2A; details: [3H]ketanserin (0.5 nM), 60 min, RT, read-out: Inhibition (%) (displacement of radioligand)
T6 construct: Eurofins Cerep (France)
T6 sequence (P28223 whole entry): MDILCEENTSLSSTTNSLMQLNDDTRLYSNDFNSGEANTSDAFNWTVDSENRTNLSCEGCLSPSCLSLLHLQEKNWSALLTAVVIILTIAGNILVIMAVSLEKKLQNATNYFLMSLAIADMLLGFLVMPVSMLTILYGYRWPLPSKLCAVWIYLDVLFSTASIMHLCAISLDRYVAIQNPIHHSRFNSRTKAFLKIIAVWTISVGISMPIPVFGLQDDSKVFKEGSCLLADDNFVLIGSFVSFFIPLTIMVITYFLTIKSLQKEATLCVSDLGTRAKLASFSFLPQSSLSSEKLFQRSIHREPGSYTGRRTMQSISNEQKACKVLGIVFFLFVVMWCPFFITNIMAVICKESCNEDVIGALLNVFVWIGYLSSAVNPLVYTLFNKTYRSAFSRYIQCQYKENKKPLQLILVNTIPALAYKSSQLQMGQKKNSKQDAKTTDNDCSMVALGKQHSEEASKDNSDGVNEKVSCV

[3] = Metabolic stability in rat liver microsomes; format: in vitro ADME
Procedure: as §1, §2

[4] = Metabolic stability in human liver microsomes; format: in vitro ADME; details: HLMs, compound at 5 μM
Procedure: as §1, §2

[5] = Parallel artificial membrane permeability assay (PAMPA); format: in vitro ADME; details: PBS pH 7.4, 25 °C, read-out: permeability value (P)
hERG K+ channel = molecular target: T7, hERG K+ channel (Homo sapiens, UniProt Q12809); test: hERG whole-cell patch clamp assay; format: cell-based; details: CHO-K1 cells, n = 3, read-out: IC50, blockade of hERG K+ channel current
T7 construct: host or cells: CHO-K1
T7 sequence (Q12809 whole entry): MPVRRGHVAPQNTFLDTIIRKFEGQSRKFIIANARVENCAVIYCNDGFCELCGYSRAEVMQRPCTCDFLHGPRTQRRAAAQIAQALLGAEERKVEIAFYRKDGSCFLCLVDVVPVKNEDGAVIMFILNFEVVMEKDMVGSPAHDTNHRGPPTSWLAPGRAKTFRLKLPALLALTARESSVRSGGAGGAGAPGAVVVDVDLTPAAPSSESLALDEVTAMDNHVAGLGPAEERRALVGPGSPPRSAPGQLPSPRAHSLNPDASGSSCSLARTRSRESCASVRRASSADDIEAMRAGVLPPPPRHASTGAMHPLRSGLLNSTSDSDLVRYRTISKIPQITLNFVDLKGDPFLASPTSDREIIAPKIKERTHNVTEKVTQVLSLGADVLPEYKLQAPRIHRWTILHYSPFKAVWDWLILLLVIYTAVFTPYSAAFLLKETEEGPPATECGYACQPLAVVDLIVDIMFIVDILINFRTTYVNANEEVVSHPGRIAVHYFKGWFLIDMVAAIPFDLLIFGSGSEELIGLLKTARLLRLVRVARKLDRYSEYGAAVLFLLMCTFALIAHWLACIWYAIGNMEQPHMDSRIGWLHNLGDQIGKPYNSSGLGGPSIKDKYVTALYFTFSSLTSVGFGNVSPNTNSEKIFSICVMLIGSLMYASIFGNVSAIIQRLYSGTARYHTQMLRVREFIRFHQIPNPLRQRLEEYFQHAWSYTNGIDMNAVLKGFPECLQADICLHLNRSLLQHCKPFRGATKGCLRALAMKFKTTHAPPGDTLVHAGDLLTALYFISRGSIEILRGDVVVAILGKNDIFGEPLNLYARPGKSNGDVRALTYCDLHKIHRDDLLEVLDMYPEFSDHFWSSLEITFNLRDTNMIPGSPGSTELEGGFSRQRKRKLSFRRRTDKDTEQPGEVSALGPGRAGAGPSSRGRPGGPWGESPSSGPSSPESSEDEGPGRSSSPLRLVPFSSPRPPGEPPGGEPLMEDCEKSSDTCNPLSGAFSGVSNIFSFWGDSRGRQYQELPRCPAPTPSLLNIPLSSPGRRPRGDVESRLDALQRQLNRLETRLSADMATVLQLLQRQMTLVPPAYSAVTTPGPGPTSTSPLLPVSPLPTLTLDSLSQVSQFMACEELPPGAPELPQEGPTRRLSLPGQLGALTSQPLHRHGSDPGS

[6] = molecular target: T8, serotonin 5-HT2B receptor (Homo sapiens, UniProt P41595); test: Selectivity panel radioligand binding, 5-HT2B; details: [3H]mesulergine, 60 min, RT, read-out: Inhibition (%) (displacement of radioligand)
T8 construct: Eurofins Cerep (France)
T8 sequence (P41595 whole entry): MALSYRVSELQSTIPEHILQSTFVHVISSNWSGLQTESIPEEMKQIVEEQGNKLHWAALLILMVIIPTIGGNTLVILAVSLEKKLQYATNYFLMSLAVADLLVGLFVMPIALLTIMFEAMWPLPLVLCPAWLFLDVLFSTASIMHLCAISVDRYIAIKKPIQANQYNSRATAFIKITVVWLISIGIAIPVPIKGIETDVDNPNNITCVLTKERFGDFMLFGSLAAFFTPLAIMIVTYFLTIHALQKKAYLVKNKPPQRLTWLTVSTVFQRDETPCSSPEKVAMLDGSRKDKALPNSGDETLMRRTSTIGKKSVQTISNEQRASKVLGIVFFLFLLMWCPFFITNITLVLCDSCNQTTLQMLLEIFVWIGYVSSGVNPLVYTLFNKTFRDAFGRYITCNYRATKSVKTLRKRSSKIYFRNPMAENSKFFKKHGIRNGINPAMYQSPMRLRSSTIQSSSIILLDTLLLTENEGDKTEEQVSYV

[7] = test system: rats (time-induced memory deficit); test: Novel object recognition task (NORT); format: in vivo, rat; details: male Wistar rats, 60 min before each session
[8] = read-out: pIC50, inhibition of 5-HT-induced stimulation of cAMP (converted)

human 5-HT6R, sequence (P50406 whole entry): as the sequence (P50406 whole entry C110A) above, with A110C counted along it

| melting point | Ki (human 5-HT6R) [nM] | Structure (SMILES) | also measured |
| --- | --- | --- | --- |
| 121 to 123 °C | 243 ± 15 | CN(C)CCn1cnc2c(NS(=O)(=O)c3ccccc3)cccc21 [Compound 2] |  |
| 178 to 180 °C | 213 ± 8 | CN(C)CCn1cnc2cc(NS(=O)(=O)c3ccccc3)ccc21 [Compound 3] |  |
| 138 to 140 °C | 200 ± 10 | CN(C)CCn1cnc2ccc(NS(=O)(=O)c3ccccc3)cc21 [Compound 4] |  |
|  |  | NCCc1c[nH]c2ccc(O)cc12 [Compound 5-HT, 5-HT] | cAMP release (5-HT) Efficacy (5-HT6R C110A; 5-HT6R C110A): agonist; cAMP release (5-HT) Efficacy (5-HT6R F285A; 5-HT6R F285A): agonist; cAMP release (5-HT) Efficacy (human 5-HT6R WT; 5-HT6R WT): agonist; cAMP release (5-HT) Efficacy (5-HT6R N288A; 5-HT6R N288A): agonist; cAMP release (5-HT) Efficacy (5-HT6R S193A; 5-HT6R S193A): agonist |
| 76 to 78 °C | 64 | CN(C)CCn1cnc2c(NS(=O)(=O)c3ccc4c(Cl)cccc4c3)cccc21 [Compound 5] |  |
| 92 to 95 °C | 112 | CN(C)CCn1cnc2cc(NS(=O)(=O)c3ccc4c(Cl)cccc4c3)ccc21 [Compound 6] |  |
| 90 to 93 °C | 89 | Cc1c(S(=O)(=O)Nc2cccc3c2ncn3CCN(C)C)sc2ccc(Cl)cc12 [Compound 8] |  |
| 90 to 93 °C | 245 | Cc1c(S(=O)(=O)Nc2ccc3c(c2)ncn3CCN(C)C)sc2ccc(Cl)cc12 [Compound 9] |  |
| 114 to 115 °C | 25 | Cc1c(S(=O)(=O)Nc2ccc3ncn(CCN(C)C)c3c2)sc2ccc(Cl)cc12 [Compound 10] | disappearance of the 5-HT induced response (human 5-HT6R WT): ≥ 95%; functional character at the human 5-HT6R in the AC assay (human 5-HT6R WT): antagonists; increase in cAMP levels by ligand alone (agonist effect) (human 5-HT6R WT): did not induce a substantial increase in cAMP levels; IC50 (human 5-HT6R WT): 50.1 nM |
| 71 to 74 °C | 200 ± 13 | CN(C)CCn1cnc2c(NS(=O)(=O)c3c(Cl)nc4sccn34)cccc21 [Compound 11] |  |
| 99 to 101 °C | 33 ± 3 | CN(C)CCn1cnc2cc(NS(=O)(=O)c3c(Cl)nc4sccn34)ccc21 [Compound 12] |  |
| 139 to 141 °C | 182 ± 6 | CN(C)CCn1cnc2ccc(NS(=O)(=O)c3c(Cl)nc4sccn34)cc21 [Compound 13] |  |
| 181 °C (dec.) | > 500 | CN(C)CCn1cnc2ccc(NS(=O)(=O)c3ccc4cc(Cl)ccc4c3)cc21 [Compound 14] |  |
| 223 °C (dec.) | 238 | CN(C)CCn1cnc2ccc(NS(=O)(=O)c3cccc4c(Cl)cccc34)cc21 [Compound 15] |  |
|  | 12 | CN(C)CCn1cnc2ccc(NS(=O)(=O)c3ccc4c(Br)cccc4c3)cc21 [Compound 16] |  |
|  | 37 | Cc1c(S(=O)(=O)Nc2ccc3ncn(CCN(C)C)c3c2)sc2ccc(Br)cc12 [Compound 17] |  |
| 207 to 208 °C | 144 | CN(C)CCn1cnc2ccc(NS(=O)(=O)c3ccc4ccccc4c3)cc21 [Compound 18] |  |
| 175 to 176 °C | 195 | Cc1c(S(=O)(=O)Nc2ccc3ncn(CCN(C)C)c3c2)sc2ccccc12 [Compound 19] |  |
| 104 to 106 °C | > 500 | CN(C)CCCn1cnc2c(C(=O)Nc3ccccc3)cccc21 [Compound S1] |  |
| 108 to 110 °C | > 500 | CN(C)CCCn1cnc2cc(C(=O)Nc3ccccc3)ccc21 [Compound S2] |  |
| 109 to 112 °C | > 500 | CN(C)CCn1cnc2c(NC(=O)c3ccccc3)cccc21 [Compound S7] |  |
| 113 to 115 °C | > 500 | CN(C)CCn1cnc2cc(NC(=O)c3ccccc3)ccc21 [Compound S8] |  |
| 115 to 117 °C | > 500 | CN(C)CCn1cnc2ccc(NC(=O)c3ccccc3)cc21 [Compound S9] |  |
| 98 to 101 °C | > 500 | CN(C)CCn1cnc2cccc(NC(=O)c3ccccc3)c21 [Compound S10] |  |
| 142 to 145 °C | > 500 | CN(C)CCn1cnc2cccc(NS(=O)(=O)c3ccccc3)c21 [Compound S11] |  |
|  |  | CC(C)NCC(O)COc1cccc2ccccc12 (centres unmarked) [propranolol, reference compound] | Papp at 5 h, 200 μM [5]: 25 ×10⁻⁶ cm/s |
|  |  | Nc1c2c(nc3ccccc13)CCCC2 [tacrine, reference compound] | effect on time-induced memory deficit in NORT (exploration of novel vs familiar object) ([7]; 0.5 mg/kg, po): animals spent more time exploring the novel object than the familiar one |

| Structure (SMILES) | melting point | Ki (human 5-HT6R) [nM] | also measured |
| --- | --- | --- | --- |
| CN(C)CCn1cnc2ccc(NS(=O)(=O)c3ccc4c(Cl)cccc4c3)cc21 [Compound 7, 5-Chloro-N-{1-[2-(dimethylamino)ethyl]-1H-benzimidazol-6-yl}naphthalene-2-sulfonamide] |  | 9 | binding to HSA [1]: 70%; activity at 30 min, 10 µM (CYP2D6): 78%; IC50 (5-HT6R C110A; [8]): 158 nM; inhibition at 1 µM [2]: < 23%; half-life at 1 μM ([3]; RLMs, compound at 1 μM, read-out: half-life time (t1/2)): 20.7 min; CLint scaled at 1 μM ([3]; read-out: intrinsic clearance (CLint)): 67.8 mL/min/kg; CLint scaled at 5 μM ([4]; calculated from t1/2, read-out: intrinsic clearance (CLint)): 8 mL/min/kg; half-life at 5 μM ([4]; read-out: half-life time (t1/2)): 77.5 min; IC50 (5-HT6R F285A; [8]): ~31600 nM; disappearance of the 5-HT induced response (human 5-HT6R WT): ≥ 95%; functional character at the human 5-HT6R in the AC assay (human 5-HT6R WT): antagonists; increase in cAMP levels by ligand alone (agonist effect) (human 5-HT6R WT): did not induce a substantial increase in cAMP levels; IC50 (human 5-HT6R WT): 15.8 nM; Papp at 5 h, 200 μM [5]: 12 ×10⁻⁶ cm/s; IC50 (hERG K+ channel): > 10000 nM; IC50 (5-HT6R N288A; [8]): 126 nM; inhibition at 1 µM [6]: 16%; effect on time-induced memory deficit in NORT (exploration of novel vs familiar object) ([7]; 1 mg/kg, ip, 1 mg/kg): in vivo procognitive activity; also recorded: animals spent more time exploring the novel object than the familiar one; also recorded: significant reversal of the time-delay induced memory deficit; IC50 (5-HT6R S193A; [8]): 1260 nM |
